Test results reported in US9181307B2, “Influenza A 2009 pandemic H1N1 polypeptide fragments comprising endonuclease activity and their use” (priority 2010, dated 2015).

Tested on: endonucleolytically active site of the Influenza A 2009 pandemic H1N1 PA subunit polypeptide fragment or variant thereof
Assay: Co-crystallisation / X-ray structure: binding to the endonucleolytically active site
Set-up: species or system Influenza A 2009 pandemic H1N1 virus

Q: How did the “ability to bind to the endonucleolytically active site” value (from here on “ability to bind”) turn out when `O=C(O[C@@H]1Cc2c(O)cc(O)cc2O[C@@H]1c1cc(O)c(O)c(O)c1)c1cc(O)c(O)c(O)c1` [EGCG, [(2R,3R)-5,7-dihydroxy-2-(3,4,5-trihydroxyphenyl)chroman-3-yl]3,4,5-trihydroxybenzoate] was run?
A: able to bind to the endonucleolytically active site

Q: With `O=C(O)/C(O)=C/C(=O)C1(Cc2ccc(Cl)cc2)CCN(CC2CCCCC2)CC1` [EMBL-R05-2, 4-[4-[(4-chlorophenyl)methyl]-1-(cyclohexylmethyl)-4-piperidinyl]-2-hydroxy-4-oxo-2-butenoic acid] as the compound, how does the “ability to bind” value read?
A: able to bind to the endonucleolytically active site

Q: How did the “ability to bind” value turn out when `O=C(O)/C(O)=C/C(=O)C1(Cc2ccc(Cl)cc2)CCCN(Cc2ccccc2)C1` (stereo not drawn) [EMBL-R05-3, 4-[3-[(4-chlorophenyl)methyl]-1-(phenylmethyl)-3-piperidinyl]-2-hydroxy-4-oxo-2-butenoic acid] was run?
A: able to bind to the endonucleolytically active site
